Reference: patent US5538968A, “Geneserine derivatives processes as cholinesterase inhibitors” (priority 1991, dated 1996)
Where a name gives a salt, the structure may show the parent alone.

System: acetylcholinesterase (AchE) in the brain
Experiment: Time course of inhibition of brain acetylcholinesterase (AchE) in the rat after s.c. administration (Ellman acetylthiocholine method, ex vivo)
Parameters: species or system rat (male Crl:CD (SD) BR)
Details: for Time of peak effect on brain AchE: at doses producing effects comparable to 9 mg/kg CHF 2060
Description: 1. Acetylcholinesterase inhibition
The time course of inhibition of acetylcholinesterase (AchE) in the brain was assessed in male Crl:CD (SD) BR rats (Charles River Italia), weighing between 150-250 g.
The test substances were administered by s.c. route, dissolved in 2 ml/kg of sterile saline. 9 animals/group/time were used.
Controls received the vehicle only.
At various intervals (10-60-120-240 min) after administration the rats were sacrificed by decapitation and the brains were rapidly removed, weighed and immediately placed in 1 ml of phosphate buffer 0.1M, pH 8.0, added with 1% Triton 100 (Merck).
After homogenization and centrifugation at 19943 g for 15 min at 4° C. the surnatant was separated and used for the determination of AchE activity according to the acetyltiocholine method described by Ellmann (Ellman G. L. et al., Biochem. Pharmacol. 7, 88, 1961).
The activity concentrations obtained (U/l surnatant) were individually corrected for the brain weight.

CCCCCCCNC(=O)Oc1ccc2c(c1)C1(C)CCN(C)OC1N2C [CHF 2060, N-heptyl-geneserine L-tartrate]
AUC 0-4 h of inhibition of brain acetylcholinesterase (9 mg/kg s.c.): 127 % inib. hr
Max % inhib. of brain acetylcholinesterase (9 mg/kg s.c.): 45%
T max (time of the maximal inhibition) (9 mg/kg s.c.): ≥ 240 min
Brain acetylcholinesterase % inhib. (9 mg/kg s.c., 10 min): 11%
Brain acetylcholinesterase activity, U/1 surn. (9 mg/kg s.c., 10 min): 3094 ± 197 U/1 surn.
Brain acetylcholinesterase activity, U/1 surn. (9 mg/kg s.c., 60 min): 2294 ± 150 U/1 surn.
Brain acetylcholinesterase % inhib. (9 mg/kg s.c., 60 min, ** P < 0.01): 29%
Brain acetylcholinesterase activity, U/1 surn. (9 mg/kg s.c., 120 min): 2205 ± 171 U/1 surn.
Brain acetylcholinesterase % inhib. (9 mg/kg s.c., 120 min, ** P < 0.01): 33%
Brain acetylcholinesterase activity, U/1 surn. (9 mg/kg s.c., 240 min): 1565 ± 80 U/1 surn.
Brain acetylcholinesterase % inhib. (9 mg/kg s.c., 240 min, ** P < 0.01): 45%
AUC 0-4 h of inhibition of brain acetylcholinesterase (27 mg/kg s.c.): 190 % inib. hr
Max % inhib. of brain acetylcholinesterase (27 mg/kg s.c.): 68%
T max (time of the maximal inhibition) (27 mg/kg s.c.): ≥ 240 min
Factor of increase of effect between 120 and 240 min (27 mg/kg s.c., 120 to 240 min): 1.4
Brain acetylcholinesterase % inhib. (27 mg/kg s.c., 10 min): 12%
Brain acetylcholinesterase activity, U/1 surn. (27 mg/kg s.c., 10 min): 3070 ± 117 U/1 surn.
Brain acetylcholinesterase activity, U/1 surn. (27 mg/kg s.c., 60 min): 1782 ± 164 U/1 surn.
Brain acetylcholinesterase % inhib. (27 mg/kg s.c., 60 min, ** P < 0.01): 45%
Brain acetylcholinesterase activity, U/1 surn. (27 mg/kg s.c., 120 min): 1629 ± 38 U/1 surn.
Brain acetylcholinesterase % inhib. (27 mg/kg s.c., 120 min, ** P < 0.01): 50%
Brain acetylcholinesterase activity, U/1 surn. (27 mg/kg s.c., 240 min): 914 ± 26 U/1 surn.
Brain acetylcholinesterase % inhib. (27 mg/kg s.c., 240 min, ** P < 0.01): 68%
Inhibition of brain AchE (qualitative) (s.c.): long-lasting inhibitor of brain AchE
Course of effect during the 4 hrs following the treatment (s.c., 0-4 hrs): increase gradually during the 4 hrs following the treatment
Duration of action compared with Heptyl physostigmine tartrate (s.c., 27 mg/kg vs 1 mg/kg HPYS, similar AUC): more sustained action
Significant inhibition of brain AchE (s.c., 1 hr after administration (9 and 27 mg/kg), P<0,001): 29-45%
Factor of increase of effect within 4 hrs in respect to the first hour (s.c., 4 hrs vs 1 hr (9 and 27 mg/kg)): 1.5-1.6

CNC(=O)Oc1ccc2c(c1)C1(C)CCN(C)OC1N2C (stereo not drawn) [Geneserine tartrate]
AUC 0-4 h of inhibition of brain acetylcholinesterase (3 mg/kg s.c.): 133 % inib. hr
Max % inhib. of brain acetylcholinesterase (3 mg/kg s.c.): 53-57%
T max (time of the maximal inhibition) (3 mg/kg s.c.): 10 to 60 min
Brain acetylcholinesterase activity, U/1 surn. (3 mg/kg s.c., 10 min): 1447 ± 100 U/1 surn.
Brain acetylcholinesterase % inhib. (3 mg/kg s.c., 10 min, ** P < 0.01): 53%
Brain acetylcholinesterase activity, U/1 surn. (3 mg/kg s.c., 60 min): 1231 ± 86 U/1 surn.
Brain acetylcholinesterase % inhib. (3 mg/kg s.c., 60 min, ** P < 0.01): 57%
Brain acetylcholinesterase activity, U/1 surn. (3 mg/kg s.c., 120 min): 2162 ± 134 U/1 surn.
Brain acetylcholinesterase % inhib. (3 mg/kg s.c., 120 min, ** P < 0.01): 28%
Brain acetylcholinesterase % inhib. (3 mg/kg s.c., 240 min): 12%
Brain acetylcholinesterase activity, U/1 surn. (3 mg/kg s.c., 240 min): 2139 ± 208 U/1 surn.
Factor of reduction of effect 120 min. after the treatment (s.c., 120 min vs peak): 1.5-2
Effect on brain AchE after 240 min. (s.c.): disappears after 240 min
Time of peak effect on brain AchE (s.c.): 10 to 60 min
Onset of effect compared with CHF 2060 (s.c., vs 9 mg/kg CHF 2060, comparable AUC and maximum inhibition): more rapid effect

CCCCCCCNC(=O)Oc1ccc2c(c1)[C@]1(C)CCN(C)[C@@H]1N2C [Heptyl physostigmine tartrate]
AUC 0-4 h of inhibition of brain acetylcholinesterase (0.3 mg/kg s.c.): 94 % inib. hr
AUC 0-4 h of inhibition of brain acetylcholinesterase (1 mg/kg s.c.): 178 % inib. hr
Max % inhib. of brain acetylcholinesterase (1 mg/kg s.c.): 54%
T max (time of the maximal inhibition) (1 mg/kg s.c.): 60 min
Factor of reduction of effect between 120 and 240 min (1 mg/kg s.c., 120 to 240 min): 1.4
Brain acetylcholinesterase activity, U/1 surn. (1 mg/kg s.c., 10 min): 2246 ± 115 U/1 surn.
Brain acetylcholinesterase % inhib. (1 mg/kg s.c., 10 min, ** P < 0.01): 29%
Brain acetylcholinesterase activity, U/1 surn. (1 mg/kg s.c., 60 min): 1166 ± 85 U/1 surn.
Brain acetylcholinesterase % inhib. (1 mg/kg s.c., 60 min, ** P < 0.01): 54%
Brain acetylcholinesterase activity, U/1 surn. (1 mg/kg s.c., 120 min): 1506 ± 115 U/1 surn.
Brain acetylcholinesterase % inhib. (1 mg/kg s.c., 120 min, ** P < 0.01): 52%
Brain acetylcholinesterase activity, U/1 surn. (1 mg/kg s.c., 240 min): 1867 ± 52 U/1 surn.
Brain acetylcholinesterase % inhib. (1 mg/kg s.c., 240 min, ** P < 0.01): 36%

CNC(=O)Oc1ccc2c(c1)[C@]1(C)CCN(C)[C@@H]1N2C [Physostigmine]
AUC 0-4 h of inhibition of brain acetylcholinesterase (0.4 mg/kg s.c.): 135 % inib. hr
Brain acetylcholinesterase activity, U/1 surn. (0.4 mg/kg s.c., 10 min): 1368 ± 125 U/1 surn.
Brain acetylcholinesterase activity, U/1 surn. (0.4 mg/kg s.c., 60 min): 1483 ± 148 U/1 surn.
Brain acetylcholinesterase activity, U/1 surn. (0.4 mg/kg s.c., 120 min): 1829 ± 94 U/1 surn.
Brain acetylcholinesterase activity, U/1 surn. (0.4 mg/kg s.c., 240 min): 2234 ± 151 U/1 surn.
Effect on brain AchE after 240 min. (s.c.): disappears after 240 min
Time of peak effect on brain AchE (s.c.): 10 to 60 min
